For the assay, the target named is T1, human CGT (Homo sapiens, UniProt Q16880).
T1 sequence (Q16880 21-541): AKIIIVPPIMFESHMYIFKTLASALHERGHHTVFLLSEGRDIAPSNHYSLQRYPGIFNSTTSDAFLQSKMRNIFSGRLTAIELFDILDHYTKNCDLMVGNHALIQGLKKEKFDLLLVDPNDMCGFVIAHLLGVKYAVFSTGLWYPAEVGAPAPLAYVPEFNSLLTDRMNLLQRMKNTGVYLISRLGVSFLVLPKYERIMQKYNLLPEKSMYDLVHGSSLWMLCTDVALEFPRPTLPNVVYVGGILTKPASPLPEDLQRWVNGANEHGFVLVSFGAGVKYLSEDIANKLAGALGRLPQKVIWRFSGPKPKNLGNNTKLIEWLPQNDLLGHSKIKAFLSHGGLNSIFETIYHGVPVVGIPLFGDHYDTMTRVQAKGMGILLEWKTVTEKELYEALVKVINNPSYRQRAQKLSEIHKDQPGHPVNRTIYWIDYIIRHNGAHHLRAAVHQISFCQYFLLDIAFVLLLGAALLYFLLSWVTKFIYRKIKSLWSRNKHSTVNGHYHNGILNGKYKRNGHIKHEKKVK
In words: CGT Enzyme Assay (Biological Example 2, RapidFire/MS/MS method with 0.01% Tween 80 added). The format is biochemical. To be noted: enzymatic assay, CHO/CGT lysate. The procedure:
Full-length human CGT cDNA was cloned into the BamH1/Xho1 site of pcDNA3.1 (+) mammalian expression vector (V90-20, Invitrogen, Carlsbad, Calif.) and the plasmid was transfected into Chinese hamster ovary (CHO) cells. Lysate was prepared using M-PER (Mammalian Protein Extraction Reagent, ThermoFisher Scientific, Grand Island, N.Y.) in the presence of a protease inhibitor cocktail (P8340, Sigma, Saint Louis, Mo.). Each 100 mm dish (100% confluent, approximately 1×10^7 cells) was lysed with 250 μL of M-PER containing protease inhibitors. Protein concentration was determined using a Pierce BCA protein assay kit (ThermoFisher Scientific). […] The final concentration of DMSO was 0.5% in both compound-treated and mock-treated samples. Each individual reaction was diluted with 80 μL of methanol:acetronitrile (1:3) containing 5 μM N-docdecanoyl-NBD-galactosylceramide (internal standard) to stop the reaction. 200 μL H2O:acetonitile (1:1) was added to precipitate the protein. After sufficient mixing, the plates were centrifuged at 2469 g for 38 minutes, 200 μl of supernatant was transferred to a LC-MS 96-deep well plate and a second spin was performed at 2469 g for 10 minutes. The final supernatant was injected in triplicate for RapidFire/MS/MS analysis.
The quantitative analysis of C6-NBD-dihydro-ceramide and C6-NBD-dihydro-galactosylceramide was performed on a Rapid Fire 360 high-throughput mass spectrometry system (Agilent Technologies, Palo Alto, Calif.) coupled with a API4000^+ triple quadrupole mass spectrometer (Applied Biosystems, Concord, Ontario, Canada). RapidFire software packages, including RapidFire Control panel, RapidFire UI and RapidFire Integrator (Agilent Technologies), were used to control the RapidFire instrument and to process data. Analyst 1.6.2 software packages (Applied Biosystems) were used to control the MS system and acquire MS data. 10 μL of sample was loaded on a micro-scale C4 solid-phase extraction (SPE) cartridge (Agilent Technologies) and salts were removed using water supplemented with 0.1% formic acid at the flow rate of 1.5 mL/min for 3 sec. C6-NBD-dihydro-ceramide and C6-NBD-dihydro-galactosylceramide were co-eluted into the mass spectrometer using acetonitrile containing 0.1% formic acid at the flow rate of 1.0 mL/min for 3 sec. The total cycle time of one injection was 8 secs. The MS/MS detection was performed in ESI negative mode.
The C6-NBD-dihydro-galactosylceramide reading was normalized first by dividing the peak area of C6-NBD-dihydro-galactosylceramide by the peak area of the internal standard, N-docdecanoyl-NBD-galactosylceramide.

What is called IC50 is the midpoint of a concentration-inhibition curve. In turn, `C[C@@]1(C(F)(F)F)[C@H](c2cccc(OC(F)(F)F)c2)N(c2ccc(Cl)cc2)C(=O)N1c1ccc(Cl)cc1` [Example 25-1] returned an IC50 of under 1 µM.

`O=C1N(c2ccc(Cl)cc2)[C@@H]2CCC[C@]2(c2cccc(OC(F)(F)F)c2)N1c1ccc(Cl)cc1` [Example 12-2, (3aR,6aR)-1,3-bis(4-chlorophenyl)-3a-(3-(trifluoromethoxy)phenyl)hexahydrocyclopenta[d]imidazol-2(1H)-one] showed an IC50 of 10 to 30 µM.

The molecule `CCC[C@@]1(C)[C@H](c2cccc(C#N)c2)N(c2ccc(Cl)cc2)C(=O)N1c1ccc(Cl)cc1` [Example 33-2, 3-((4S,5S)-1,3-bis(4-chlorophenyl)-5-methyl-2-oxo-5-propylimidazolidin-4-yl)benzonitrile] yielded an IC50 of 1 to 10 µM.

Turning to `CC1(C)C(c2cccc(OC(F)F)c2)N(c2ccc(Cl)cc2)C(=O)N1c1ccc(Cl)cc1` (stereo not shown) [Example 9], the IC50 is under 1 µM.

Take `Cc1ccc(N2C(=O)N(c3ccc(C#N)cc3)[C@H](c3cccc(C#N)c3)C2(C)C)cc1` [Example 48-1, (R)-3-(3-(4-cyanophenyl)-5,5-dimethyl-2-oxo-1-(p-tolyl)imidazolidin-4-yl)benzonitrile]: the IC50 was 10 to 30 µM.

On to `C[C@H]1[C@H](c2ccccc2)N(c2ccc(Br)cc2)C(=O)N1c1ccc(Br)cc1` [Example 2-1, (4S,5S)-1,3-bis(4-bromophenyl)-4-methyl-5-phenylimidazolidin-2-one], for which the 50% inhibitory concentration (IC50) fell in the range of 30 to 100 µM.

`O=C1N(c2ccc(Cl)cc2)[C@H](c2cccc(OC(F)(F)F)c2)C2(CCCC2)N1c1ccc(Cl)cc1` [Example 15-2, (R)-1,3-bis(4-chlorophenyl)-4-(3-(trifluoromethoxy)phenyl)-1,3-diazaspiro[4.4]nonan-2-one] had an IC50 of under 1 µM.

For the molecule `O=C1N(c2ccc(Cl)cc2)C2CCOC[C@]2(c2cccc(OC(F)(F)F)c2)N1c1ccc(Cl)cc1` (stereo partly drawn) [Example 31-1, (3aR)-1,3-bis(4-chlorophenyl)-3a-(3-(trifluoromethoxy)phenyl)hexahydropyrano[3,4-d]imidazol-2(3H)-one], the 50% inhibitory concentration (IC50) lay in the range of 10 to 30 µM.

The molecule `C[C@H]1[C@H](c2cccc(OC(F)(F)F)c2)N(c2ccc(Cl)cc2)C(=O)N1c1ccc(Cl)cc1` [Example 4-1, (4S,5S)-1,3-bis(4-chlorophenyl)-4-methyl-5-(3-(trifluoromethoxy)phenyl)imidazolidin-2-one] had a 50% inhibitory concentration (IC50) of 10 to 30 µM.

Regarding `CC[C@]1(C)[C@@H](c2cccc(C#N)c2)N(c2ccc(Cl)cc2)C(=O)N1c1ccc(Cl)cc1` [Example 34-2, 3-((4R,5R)-1,3-bis(4-chlorophenyl)-5-ethyl-5-methyl-2-oxoimidazolidin-4-yl)benzonitrile], the IC50 is 1 to 10 µM.

For the molecule `O=C1N(c2ccc(Br)cc2)C2CCCCC2N1c1ccc(Br)cc1` (stereo not shown) [Example 1], the IC50 lay in the range of 30 to 100 µM.

`C[C@@]1(C(F)(F)F)[C@H](c2cccc(C#N)c2)N(c2ccc(Cl)cc2)C(=O)N1c1ccc(Cl)cc1` [Example 27-1, 3-((4S,5S)-1,3-bis(4-chlorophenyl)-5-methyl-2-oxo-5-(trifluoromethyl)imidazolidin-4-yl)benzonitrile] registered an IC50 of 10 to 30 µM.

Molecule `C[C@]1(C(F)(F)F)[C@@H](c2cccc(OC(F)(F)F)c2)N(c2ccc(Cl)cc2)C(=O)N1c1ccc(Cl)cc1` [Example 25-2] had an IC50 of 1 to 10 µM.

On to `CCC1(CC)[C@H](c2cccc(OC(F)(F)F)c2)N(c2ccc(Cl)cc2)C(=O)N1c1ccc(Cl)cc1` [Example 17-2, (S)-1,3-bis(4-chlorophenyl)-4,4-diethyl-5-(3-(trifluoromethoxy)phenyl)imidazolidin-2-one], for which the IC50 is 1 to 10 µM.

`N#Cc1cccc(C23CCCCC2N(c2ccc(Cl)cc2)C(=O)N3c2ccc(Cl)cc2)c1` (stereo not shown) [Example 14] showed an IC50 of under 1 µM.

`CC1(C)[C@H](c2cccc(OC(F)(F)F)c2)N(c2ccc(C(F)(F)F)cc2)C(=O)N1c1ccc(C(F)(F)F)cc1` [Example 20-2, (S)-4,4-dimethyl-5-(3-(trifluoromethoxy)phenyl)-1,3-bis(4-(trifluoromethyl)phenyl)imidazolidin-2-one] registered a half-inhibitory concentration (IC50) of 10 to 30 µM.

`Cc1ccc(N2C(=O)N(c3ccc(C#N)cc3)C3(COC3)[C@@H]2c2cccc(OC(F)(F)F)c2)cc1` [Example 43-2, (S)-4-(6-oxo-7-(p-tolyl)-8-(3-(trifluoromethoxy)phenyl)-2-oxa-5,7-diazaspiro[3.4]octan-5-yl)benzonitrile] yielded a concentration for half-maximal inhibition (IC50) of under 1 µM.

`CC1(C)[C@@H](c2cccc(C#N)c2)N(c2ccc(Cl)cc2)C(=O)N1c1ccc(Cl)cc1` [Example 10-1, (R)-3-(1,3-bis(4-chlorophenyl)-5,5-dimethyl-2-oxoimidazolidin-4-yl)benzonitrile] yielded an IC50 of 10 to 30 µM.

`N#Cc1cccc([C@]23CCCC[C@H]2N(c2ccc(Cl)cc2)C(=O)N3c2ccc(Cl)cc2)c1` [Example 14-1, 3-((3aR,7aR)-1,3-bis(4-chlorophenyl)-2-oxooctahydro-3aH-benzo[d]imidazol-3a-yl)benzonitrile] yielded a half-inhibitory concentration (IC50) of 1 to 10 µM.

The molecule `CC[C@@]1(C)[C@H](c2cccc(OC(F)(F)F)c2)N(c2ccc(Cl)cc2)C(=O)N1c1ccc(Cl)cc1` [Example 19-3, (4S,5S)-1,3-bis(4-chlorophenyl)-4-ethyl-4-methyl-5-(3-(trifluoromethoxy)phenyl)imidazolidin-2-one] had an IC50 of under 1 µM.

With `C[C@]1(C(F)(F)F)[C@@H](c2cccc(C#N)c2)N(c2ccc(Cl)cc2)C(=O)N1c1ccc(Cl)cc1` [Example 27-2, 3-((4R,5R)-1,3-bis(4-chlorophenyl)-5-methyl-2-oxo-5-(trifluoromethyl)imidazolidin-4-yl)benzonitrile], the IC50 was under 1 µM.

On to `C[C@@H]1[C@@H](c2cccc(OC(F)(F)F)c2)N(c2ccc(Br)cc2)C(=O)N1c1ccc(Br)cc1` [Example 11-1, (4R,5R)-1,3-bis(4-bromophenyl)-4-methyl-5-(3-(trifluoromethoxy)phenyl)imidazolidin-2-one], for which the IC50 lay within 1 to 10 µM.

For the molecule `CC1(C)[C@H](c2cccc(C(F)(F)F)c2)N(c2ccc(Cl)cc2)C(=O)N1c1ccc(Cl)cc1` [Example 6-2, (S)-1,3-bis(4-chlorophenyl)-4,4-dimethyl-5-(3-(trifluoromethyl)phenyl)imidazolidin-2-one], the IC50 is under 1 µM.

On to `COC[C@]1(C)[C@H](c2cccc(C#N)c2)N(c2ccc(Cl)cc2)C(=O)N1c1ccc(Cl)cc1` [Example 38-2, 3-((4S,5S)-1,3-bis(4-chlorophenyl)-5-(methoxymethyl)-5-methyl-2-oxoimidazolidin-4-yl)benzonitrile], for which the IC50 is under 1 µM.

Regarding `O=C1N(c2ccc(Cl)cc2)[C@H]2CCC[C@@]2(c2cccc(OC(F)(F)F)c2)N1c1ccc(Cl)cc1` [Example 12-1, (3aS,6aS)-1,3-bis(4-chlorophenyl)-3a-(3-(trifluoromethoxy)phenyl)hexahydrocyclopenta[d]imidazol-2(1H)-one], the half-inhibitory concentration (IC50) lay in the range of 1 to 10 µM.

Regarding `Cc1ccc(N2C(=O)N(c3ccc(Cl)cc3)[C@@H](c3cccc(OC(F)(F)F)c3)C2(C)C)cc1` [Example 56-2, (S)-1-(4-chlorophenyl)-4,4-dimethyl-3-(p-tolyl)-5-(3-(trifluoromethoxy)phenyl)imidazolidin-2-one], the IC50 was under 1 µM.

Molecule `CCC[C@]1(C)[C@@H](c2cccc(C#N)c2)N(c2ccc(Cl)cc2)C(=O)N1c1ccc(Cl)cc1` [Example 33-1, 3-((4R,5R)-1,3-bis(4-chlorophenyl)-5-methyl-2-oxo-5-propylimidazolidin-4-yl)benzonitrile] yielded an IC50 of under 1 µM.

For `COC[C@]1(C)[C@H](c2cccc(OC(F)(F)F)c2)N(c2ccc(Cl)cc2)C(=O)N1c1ccc(Cl)cc1` [Example 37-2, (4S,5S)-1,3-bis(4-chlorophenyl)-4-(methoxymethyl)-4-methyl-5-(3-(trifluoromethoxy)phenyl)imidazolidin-2-one], the IC50 was under 1 µM.

Source of the values: patent US20190134005A1 (BioMarin Pharmaceutical Inc., priority 2016, published 2019).
